Like-named read-outs stand apart in the source and are kept apart here.
Tests used:
[1] = IAM-HPLC chromatographic capacity factor (log k' IAM); assay type: physicochemical; conditions: IAM.PC.MG 12 µm column; isocratic ACN/0.035 M phosphate buffer pH 6.8 (30:70 v/v), 0.5 ml/min; k'=(Tr–T0)/T0; mean of 2–4 determinations
Procedure: Chromatographic analysis was performed using a Shimadzu LC 20A chromatograph coupled to a diode array detector, operated at a range of 210–260 nm, depending on the analyzed compound. A biomimetic commercially available column was used in all experiments: IAM. PC.MG12 µm (150 × 4.6 mm) was purchased from Regis Chemical Company (Morton Grove, IL).
OSC separation conditions under IAM-HPLC were adapted from [Luco et al. (2003]) and [Barbato et al. (1998]), with modifications. The chromatographic mode consisted in an isocratic elution used as the mobile phase ACN/0.035 M phosphate buffer −pH 6.8− (30:70 (v/v)) at 0.5 ml min^−1. The column dead time (T0) was estimated by ascorbic acid retention time which was measured at 210 nm. The obtained retention data were used to calculate the chromatographic parameter corresponding to the capacity factor k’ as follows: k’ = (Tr–T0)/T0. All capacity factors given represent the mean of 2–4 determinations of each sample solution.
For this study, we considered 28 phytochemical compounds containing sulfur-based groups. […] Most of these compounds are garlic-derived substances with bioactive functions. […] We chose them because of their bioactive functionality and their similar metabolism within the plants and human body. Each analytical standard stock solution was prepared in the mobile phase at concentrations ranging from 100 to 800 µg ml^−1, depending on the solubility of the compound and their DAD detector response. Peak identification in samples was carried out by comparing retention times with reference standards.

[2] = design: method as in Egen-Schwind et al., 1992; conditions: ref Egen-Schwind et al., 1992, cited from earlier work; for lipophilicity (relative, in words): 1,3- vs 1,2-vinyldithiin; for elimination / tissue accumulation: serum, kidney, fat tissue
[3] = design: method as in Torres-Palazzolo et al. (2018); conditions: ref Torres-Palazzolo et al. (2018); cited from earlier work
[4] = cited from earlier work

C[S+]([O-])C[C@H](N)C(=O)O (single isomer, unassigned; (+)) [Methiin, (+)-S-methyl-L-cysteine sulfoxide]
Log (k'IAM) [1]: −1.922

CC=C[S+]([O-])C[C@H](N)C(=O)O (stereo in doubt) [Isoalliin, (+)-S-trans-1-propenyl-L-cysteine sulfoxide]
Log (k'IAM) [1]: −0.734

C=CC1CC=CSS1 (stereo not drawn) [1,2-vinyldithiin]
lipophilicity (relative, in words) [2]: more lipophilic
elimination / tissue accumulation [2]: showed a tendency to accumulate in fat tissues

C=CC1SC=CCS1 (stereo not drawn) [2-vinyldithiin, 2-Vinyl-4H-1,3-dithiine]
Log (k'IAM) [1]: 0.237
permeation through the intestine [3]: less than 5%
lipophilicity (relative, in words) [2]: less lipophilic
elimination / tissue accumulation [2]: rapidly eliminated from serum, the kidney, and fat tissue

C=CCS[S+]([O-])CC=C (stereo not drawn) [Allicin, diallyl thiosulfinate]
Log (k'IAM) [1]: −0.409
permeation through the intestine [3]: less than 5%
cellular permeability (in words) ([4]; ref Rahman, 2007): can easily permeate cell membranes of phospholipids bilayers
metabolism (in words) ([4]; ref Rahman, 2007): rapidly metabolized and transformed into other active compounds

C=CCN=C=S [Allyl isothiocyanate]
Log (k'IAM) [1]: 0.118

C=CCS [Allyl mercaptan]
Log (k'IAM) [1]: −0.197

C=CCSC [Allyl methyl sulfide, allyl methyl sulfide]
Log (k'IAM) [1]: −1.021

S=C=NCc1ccccc1 [Benzyl isothiocyanate]
Log (k'IAM) [1]: 0.571

C=CCSSSCC=C [Diallyl Trisulfide, diallyl trisulfide]
Log (k'IAM) [1]: 0.781
cellular permeability (in words) ([4]; not told): high cellular permeability

C=CCSSCC=C [Diallyl disulfide, diallyl disulfide]
Log (k'IAM) [1]: 0.554
cellular permeability (in words) ([4]; ref Rahman, 2007): high cellular permeability

C=CCSCC=C [Diallyl sulfide, diallyl sulfide]
Log (k'IAM) [1]: 0.222
permeation through the intestine [3]: less than 5%

CSSC [Dimethyl disulfide, dimethyl disulfide]
Log (k'IAM) [1]: −0.017

C=CCSS/C=C/C[S+]([O-])CC=C (stereo not drawn) [E-Ajoene]
Log (k'IAM) [1]: 0.022

CCSSCC [Ethyl disulfide]
Log (k'IAM) [1]: 0.420

CCSCC [Ethyl sulfide]
Log (k'IAM) [1]: −0.099

c1coc(CSSCc2ccco2)c1 [Furfuryl disulfide, furfuryl disulfide]
Log (k'IAM) [1]: 0.713

OCc1c[nH]c2ccccc12 [Indole-3-carbinol, indole-3-carbinol]
Log (k'IAM) [1]: −0.204

CCCSSSC [Methyl Propyl Trisulfide]
Log (k'IAM) [1]: 0.810

S=C=NCCc1ccccc1 [Phenethyl isothiocyanate]
Log (k'IAM) [1]: 0.663

S=C=Nc1ccccc1 [Phenyl isothiocyanate]
Log (k'IAM) [1]: 0.746

CCCSSCCC [Propyl disulfide]
Log (k'IAM) [1]: 0.913

C[S+]([O-])CCCCN=C=S (stereo not drawn) [Sulforaphane, sulforaphane]
Log (k'IAM) [1]: −0.514

C[S+]([O-])/C=C/CCN=C=S (stereo not drawn) [Sulforaphene, S-sulforaphene]
Log (k'IAM) [1]: −0.521

C=CCSS/C=C\C[S+]([O-])CC=C (stereo not drawn) [Z-Ajoene]
Log (k'IAM) [1]: 0.015

S-allyl-L-cysteine
Log (k'IAM) [1]: −1.102
cellular permeability (in words) ([4]; ref Rahman, 2007): high cellular permeability

S-methyl-L-cysteine
Log (k'IAM) [1]: −1.322

S-propyl-L-cysteine
Log (k'IAM) [1]: −1.645

— PMC8488277, “Permeability Data of Organosulfur Garlic Compounds Estimated by Immobilized Artificial Membrane Chromatography: Correlation Across Several Biological Barriers” (Frontiers in Chemistry, 2021)
